Data on 11 compounds can be found in ChEMBL document CHEMBL1201862, “PubChem BioAssay data set” (2004).

Some test systems named below: A549; HOP-92; HT-29; SK-MEL-2; SN12C; SNB-75; HCT-116; SW-620; SK-MEL-28; SNB-19; NCI-H226; HCT-15; U-251; HOP-62; SK-MEL-5; HL-60; SF-268; LOX IMVI; PC-3.
Common to all, as to assay: growth of human tumour cells (NCI), 48 h

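Step 1: Grow cells in 96-well plates. Step 2: Expose to compound for 48 hours at 5 concentrations. Step 3: Interpolate endpoints linearly; if unreached, use highest concentration. GI50 is the concentration that inhibits growth by half.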 Active and inactive are the calls of the source. Cut-off read from the data, not from the text of the source: active = GI50 up to about 1.1 µM and inactive = higher.

With `COc1cc(/C=C\c2ccc(Br)cc2)cc(OC)c1OC`, the GI50 was 0.000589 µM (active) in the assay with A549; 0.01 µM (active) in the assay with HOP-92; 0.01 µM (active) with HT-29; 0.00794 µM (active) with SK-MEL-2; 0.00168 µM (active) in the assay on SN12C; 0.000422 µM (active) in the assay with SNB-75. Further, the GI50 in the assay with HCT-116 was 0.000515 µM (active); in the assay on SW-620, 0.000382 µM (active); in the assay with SK-MEL-28, 0.1 µM (active); with SNB-19, 0.0057 µM (active); in the assay on NCI-H226, 0.0014 µM (active); in the assay with HCT-15, 0.00333 µM. Besides, the GI50 in the assay on U-251 was 0.000463 µM (active); in the assay on HOP-62, 0.01 µM (active); with SK-MEL-5, 0.000527 µM (active); in the assay with HL-60, 0.000318 µM (active); in the assay with SF-268, 0.000792 µM (active); in the assay on LOX IMVI, 0.000811 µM (active).

For `CC(O)C(NC(=O)C(CS)NC(=O)C(CO)NC(=O)C(CCCCN)NC(=O)C(Cc1c[nH]c2ccccc12)NC(=O)C(Cc1ccc(O)cc1)NC(=O)C(CS)NC(=O)C(N)Cc1ccccc1)C(N)=O` (configuration not stated), the GI50 with A549 was > 25 µM (inactive); in the assay on HT-29, > 25 µM (inactive); with SK-MEL-2, > 25 µM (inactive); with SN12C it was > 25 µM (inactive); in the assay on SNB-75, 25 µM (inactive); with HCT-116 it was > 25 µM (inactive). Further, the GI50 in the assay on SW-620 is > 25 µM (inactive); in the assay on SK-MEL-28, 26.9 µM (inactive); with SNB-19, 26.2 µM (inactive); in the assay on NCI-H226 it was > 25 µM (inactive); with HCT-15, > 25 µM; in the assay on U-251 it was > 25 µM (inactive). For the same compound, the GI50 in the assay on HOP-62, in the assay with SK-MEL-5, in the assay with HL-60, with PC-3, in the assay with SF-268 and in the assay on LOX IMVI was > 25 µM (inactive) in each case.

For the compound `CC[C@@H](C(=O)[C@@H](C)[C@@H](O)[C@H](C)CCc1ccc(C)c(O)c1C(=O)O)[C@H]1O[C@](CC)([C@H]2CC[C@](O)(CC)[C@H](C)O2)C[C@@H]1C` [LASALOCID A SODIUM], the GI50 in the assay with A549 is 2.06 µM (inactive); in the assay with HOP-92, 1.69 µM (inactive); with HT-29, 1.06 µM (active); in the assay with SK-MEL-2, 1.85 µM (inactive); in the assay on SN12C, 1.91 µM (inactive); in the assay on SNB-75, 0.92 µM (active). Besides, the GI50 with HCT-116 is 1.48 µM (inactive); with SW-620, 2.33 µM (inactive); with SK-MEL-28, 1.3 µM (inactive); in the assay on SNB-19 it was 1.3 µM (inactive); with NCI-H226, 3.05 µM (inactive); in the assay on HCT-15 it was 3.19 µM. The GI50 was 1.34 µM (inactive) with U-251; 1.38 µM (inactive) with HOP-62; 1.66 µM (inactive) in the assay with SK-MEL-5; 0.348 µM (active) in the assay on HL-60; 2.21 µM (inactive) with SF-268; 2.77 µM (inactive) in the assay on LOX IMVI.

As for `O=C(Cc1nc2ccccc2o1)C(=O)Nc1cccc(C(F)(F)F)c1`, the GI50 with A549, with HOP-92, in the assay with HT-29, in the assay on SK-MEL-2, in the assay with SN12C and with SNB-75 was > 100 µM (inactive) in each case. For the same compound, the GI50 in the assay with HCT-116 is > 100 µM (inactive); with SW-620 it was > 100 µM (inactive); with SK-MEL-28 it was > 100 µM (inactive); in the assay on SNB-19, > 100 µM (inactive); in the assay on NCI-H226, > 100 µM (inactive); in the assay with HCT-15, > 100 µM. For the same compound, the GI50 with U-251, in the assay on HOP-62, in the assay with SK-MEL-5, in the assay with HL-60, in the assay with SF-268 and with LOX IMVI was > 100 µM (inactive) in each case.

As to `CCc1cccc(C(C)C)c1NC(=O)C(=O)C(CC(=O)Nc1ccc(Cl)c(Cl)c1)C(=O)OC` (configuration not stated), the GI50 in the assay with A549 was > 100 µM (inactive); in the assay on HOP-92, 51.3 µM (inactive); in the assay with HT-29 it was > 100 µM (inactive); in the assay on SK-MEL-2, > 100 µM (inactive); in the assay on SN12C, > 100 µM (inactive); in the assay on SNB-75 it was > 100 µM (inactive). The GI50 in the assay on HCT-116 was 34.3 µM (inactive); with SW-620, 10 µM (inactive); in the assay with SK-MEL-28 it was > 100 µM (inactive); in the assay on SNB-19 it was > 100 µM (inactive); in the assay on NCI-H226, > 100 µM (inactive); with HCT-15, 14.8 µM. For the same compound, the GI50 was > 100 µM (inactive) with U-251; 35.2 µM (inactive) in the assay with HOP-62; 55.8 µM (inactive) in the assay on SK-MEL-5; > 100 µM (inactive) in the assay on HL-60; > 100 µM (inactive) in the assay on SF-268; > 100 µM (inactive) with LOX IMVI.

Regarding `O=c1[nH]c(=O)n(COCc2ccccc2)c2ccccc12`, the GI50 with A549 is 92.7 µM (inactive); in the assay with HOP-92, 77.6 µM (inactive); in the assay on HT-29 it was 31.9 µM (inactive); in the assay on SK-MEL-2, > 100 µM (inactive); in the assay on SN12C, > 100 µM (inactive); with SNB-75, 13.1 µM (inactive). For the same compound, the GI50 with HCT-116 is 46.3 µM (inactive); in the assay with SW-620, > 100 µM (inactive); in the assay on SK-MEL-28, 91.4 µM (inactive); with SNB-19 it was 23 µM (inactive); with NCI-H226, 47.8 µM (inactive); with HCT-15, 14 µM. The GI50 is 52.1 µM (inactive) in the assay on U-251; 27.7 µM (inactive) in the assay with SK-MEL-5; 19.9 µM (inactive) with HL-60; 39.7 µM (inactive) with PC-3; 95.3 µM (inactive) in the assay on LOX IMVI.

As for `CCc1cccc(C(C)C)c1NC(=O)CC1Sc2ccccc2NC1=O` (configuration not stated), the GI50 in the assay on A549 is 49.2 µM (inactive); in the assay with HOP-92, 39.5 µM (inactive); with HT-29, 55.6 µM (inactive); in the assay on SK-MEL-2, 39.5 µM (inactive); in the assay on SN12C it was > 100 µM (inactive); in the assay with SNB-75, 60.7 µM (inactive). Also, the GI50 is 56.4 µM (inactive) with HCT-116; 13 µM (inactive) with SW-620; > 100 µM (inactive) in the assay on SK-MEL-28; 23.2 µM (inactive) in the assay on SNB-19; > 100 µM (inactive) in the assay with NCI-H226; 47.9 µM in the assay with HCT-15. Also, the GI50 was 71 µM (inactive) with U-251; > 100 µM (inactive) with HOP-62; 36.5 µM (inactive) with SK-MEL-5; 24 µM (inactive) in the assay with HL-60; > 100 µM (inactive) in the assay on SF-268; 45 µM (inactive) in the assay on LOX IMVI.

On to `COc1ccc(/C=c2\sc3nnc(CCC(=O)Nc4cccc(C(F)(F)F)c4)n3c2=O)cc1`, for which the GI50 with A549 is > 100 µM (inactive); with HOP-92 it was > 100 µM (inactive); with HT-29, > 100 µM (inactive); in the assay on SK-MEL-2, 72.9 µM (inactive); with SN12C it was > 100 µM (inactive); with SNB-75, > 75.7 µM (inactive). Moreover, the GI50 is > 100 µM (inactive) with HCT-116; > 100 µM (inactive) with SW-620; > 74.3 µM (inactive) in the assay on SK-MEL-28; > 100 µM (inactive) in the assay on SNB-19; > 100 µM (inactive) in the assay on NCI-H226; > 100 µM with HCT-15. For the same compound, the GI50 with U-251 was > 94.2 µM (inactive); in the assay with HOP-62, > 100 µM (inactive); with SK-MEL-5, > 100 µM (inactive); in the assay on HL-60 it was > 47.9 µM (inactive); in the assay with SF-268, 97.5 µM (inactive); with LOX IMVI, > 100 µM (inactive).

Consider `N#CC(/C(=N/NC(=O)C(=O)NN)C(=O)NC12CC3CC(CC(C3)C1)C2)c1ccccc1` (configuration not stated), for which the GI50 in the assay on A549, with HOP-92, with HT-29, in the assay on SK-MEL-2, in the assay on SN12C and in the assay with SNB-75 was > 100 µM (inactive) throughout. For the same compound, the GI50 in the assay with HCT-116 was > 100 µM (inactive); in the assay on SW-620 it was > 100 µM (inactive); in the assay with SK-MEL-28, > 100 µM (inactive); with SNB-19, > 100 µM (inactive); in the assay on NCI-H226, > 100 µM (inactive); with HCT-15, > 100 µM. Besides, the GI50 with U-251, in the assay on HOP-62, in the assay on SK-MEL-5, in the assay on HL-60, in the assay on SF-268 and with LOX IMVI was > 100 µM (inactive) each time.

In the case of `COCCCNC(=O)C1C(=O)C(=O)N(CCCOC)C1=O` (configuration not stated), the GI50 with A549, in the assay on HOP-92, in the assay with HT-29, in the assay on SK-MEL-2, in the assay with SN12C and with SNB-75 was > 100 µM (inactive) throughout. Also, the GI50 was > 100 µM (inactive) in the assay on HCT-116; > 100 µM (inactive) in the assay with SW-620; > 100 µM (inactive) in the assay on SK-MEL-28; > 100 µM (inactive) in the assay on SNB-19; > 100 µM (inactive) with NCI-H226; > 100 µM with HCT-15. Moreover, the GI50 in the assay with U-251, with HOP-62, with SK-MEL-5, in the assay on HL-60, in the assay on SF-268 and with LOX IMVI was > 100 µM (inactive) in each case.

As for `CCNc1ncnc2nn[nH]c12`, the GI50 with A549, in the assay with HOP-92, in the assay on HT-29, in the assay on SK-MEL-2, in the assay with SN12C and in the assay with SNB-75 was > 100 µM (inactive) in each case. The GI50 in the assay on HCT-116 is > 100 µM (inactive); with SW-620 it was > 100 µM (inactive); in the assay with SK-MEL-28, > 100 µM (inactive); with SNB-19, > 100 µM (inactive); in the assay with NCI-H226, > 100 µM (inactive); in the assay on HCT-15, > 100 µM. For the same compound, the GI50 with U-251, in the assay with HOP-62, in the assay with SK-MEL-5, in the assay on HL-60, in the assay with PC-3 and with LOX IMVI was > 100 µM (inactive) throughout.
